Experimental data as given in paper PMC9170034 (Proceedings of the National Academy of Sciences of the …, 2022).
Where “and” joins values, the source holds several entries; their conditions need not be identical. Equal values may be shown once.

Tests used:
[1] = target: T1, OXA-10 (Pseudomonas aeruginosa, UniProt P14489); assay: Kiapp and kinact/K determination in competition with FC-5; type: biochemical
T1 construct: His tag (N); made in house
Description: (§1) Kinetic analyses were performed (at least in triplicate) using either BMG LABTECH PHERAstar or CLARIOstar plate readers. Unless stated otherwise, reactions were in 50 mM phosphate buffer, pH 7.5, containing 0.01% (vol/vol) aqueous Triton X-100, and, in the case of OXA-10, 10 mM sodium bicarbonate. Assays were performed in competition with either the fluorescent reporter substrate FC-5 ([35]), using black-walled microplates (Greiner Bio-One μCLEAR, PS, F-bottom, black), and measuring fluorescence intensity (ʎex = 380 nm and ʎem = 460 nm), or with nitrocefin (NCF), using ultraviolet transparent plates (Greiner Bio-One UV-Star, COC, F-bottom, clear) and measuring absorbance (ʎAbs = 486 nm, using path-length correction). Nonlinear regression analysis was performed with Prism 5 (GraphPad Software).
(§2) IC50s were determined as reported ([35]). TEM-116 (1 nM), AmpCEC (500 pM), or OXA-10 (250 pM) were incubated with varied inhibitor concentrations at room temperature (r.t.) for the indicated time then assayed using 5 µM FC-5. The apparent inhibitory constant Kiapp and the second-order rate constant kinact/K (or k2/K) were determined using reported methods ([60]). SBLs were reacted with the reporter substrate in the presence of varied inhibitor concentrations. Reactions were initiated by SBL addition and immediately monitored for 60 to 120 s (until they plateaued). […]

[2] = target: T2, AmpC from Escherichia coli (AmpCEC) (Escherichia coli, UniProt P00811); assay: IC50/pIC50 determination with fluorescent reporter substrate FC-5 after pre-incubation; type: biochemical
T2 construct: made in house
T2 sequence (P00811 20-377): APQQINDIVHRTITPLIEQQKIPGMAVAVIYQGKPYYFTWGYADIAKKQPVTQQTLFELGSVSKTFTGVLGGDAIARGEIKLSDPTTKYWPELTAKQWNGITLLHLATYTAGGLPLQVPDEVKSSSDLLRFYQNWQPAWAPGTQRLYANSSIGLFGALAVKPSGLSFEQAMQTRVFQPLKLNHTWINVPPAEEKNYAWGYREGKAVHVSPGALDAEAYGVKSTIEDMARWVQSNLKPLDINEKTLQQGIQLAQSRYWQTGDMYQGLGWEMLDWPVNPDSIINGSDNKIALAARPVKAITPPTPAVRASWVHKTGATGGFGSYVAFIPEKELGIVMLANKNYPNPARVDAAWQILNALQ
Description: as §1
IC50s were determined as reported ([35]). TEM-116 (1 nM), AmpCEC (500 pM), or OXA-10 (250 pM) were incubated with varied inhibitor concentrations at room temperature (r.t.) for the indicated time then assayed using 5 µM FC-5. The apparent inhibitory constant Kiapp and the second-order rate constant kinact/K (or k2/K) were determined using reported methods ([60]). SBLs were reacted with the reporter substrate in the presence of varied inhibitor concentrations. Reactions were initiated by SBL addition and immediately monitored for 60 to 120 s (until they plateaued). For TEM-116 (1 nM) assays were carried out in competition with NCF (50 µM); for AmpCEC (100 nM) and OXA-10 (50 nM) FC-5 (5 µM) was used. […] P=Vst+(V0−VS)(1−e^−kobst)/kobs+P0.

[3] = target: T1, OXA-10; assay: SPE-MS study of prolonged reaction of SBL with penam sulfones; details: 500 equiv.
[4] = target: T1, OXA-10; assay: IC50/pIC50 determination with fluorescent reporter substrate FC-5 after pre-incubation; type: biochemical
Description: Kinetic analyses were performed (at least in triplicate) using either BMG LABTECH PHERAstar or CLARIOstar plate readers. Unless stated otherwise, reactions were in 50 mM phosphate buffer, pH 7.5, containing 0.01% (vol/vol) aqueous Triton X-100, and, in the case of OXA-10, 10 mM sodium bicarbonate. […] Nonlinear regression analysis was performed with Prism 5 (GraphPad Software).
IC50s were determined as reported ([35]). […] The apparent inhibitory constant Kiapp and the second-order rate constant kinact/K (or k2/K) were determined using reported methods ([60]). SBLs were reacted with the reporter substrate in the presence of varied inhibitor concentrations. Reactions were initiated by SBL addition and immediately monitored for 60 to 120 s (until they plateaued). […] P=Vst+(V0−VS)(1−e^−kobst)/kobs+P0.

[5] = target: T3, AmpCEC (Escherichia coli, UniProt P00811); assay: biochemical
T3 construct: made in house
T3 sequence (P00811 20-377): as above
Description: as §1, §2

T1 sequence (P14489 20-266): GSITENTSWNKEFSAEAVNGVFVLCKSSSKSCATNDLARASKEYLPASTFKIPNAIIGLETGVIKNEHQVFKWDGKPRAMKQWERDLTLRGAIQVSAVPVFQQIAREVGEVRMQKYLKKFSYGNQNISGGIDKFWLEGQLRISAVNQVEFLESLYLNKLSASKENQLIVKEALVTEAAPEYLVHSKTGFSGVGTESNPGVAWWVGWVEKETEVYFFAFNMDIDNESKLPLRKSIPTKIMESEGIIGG

SMILES: CC1(C)[C@H](C(=O)O)N2C(=O)C[C@H]2S1(=O)=O [sulbactam]
- Ki [1]: 4920 ± 873 µM
- IC50 ([2]; IC50, AmpC E. coli, 10 min pre-incubation, r.t., pH 7.5, FC-5 (5 μM)): 89 µM and 89.2 µM
- IC50 ([2]; pIC50, AmpCEC, pH 7.0, pH 7.0, 0 min pre-incubation, Table S2): 447 µM
- IC50 ([2]; pIC50, AmpCEC, pH 7.0, pH 7.0, 10 min pre-incubation, Table S2): 162 µM
- IC50 ([2]; pIC50, AmpCEC, pH 7.0, pH 7.0, 30 min pre-incubation, Table S2): 69.2 µM
- IC50 ([2]; pIC50, AmpCEC, pH 7.0, pH 7.0, 60 min pre-incubation, Table S2): 45.7 µM
- IC50 ([2]; pIC50, AmpCEC, pH 7.0, pH 7.0, 360 min pre-incubation, Table S2): 11.5 µM
- IC50 ([2]; pIC50, AmpCEC, pH 7.5, pH 7.5, 0 min pre-incubation, Table S2): 275 µM
- IC50 ([2]; pIC50, AmpCEC, pH 7.5, pH 7.5, 30 min pre-incubation, Table S2): 36.3 µM
- IC50 ([2]; pIC50, AmpCEC, pH 7.5, pH 7.5, 60 min pre-incubation, Table S2): 20 µM
- IC50 ([2]; pIC50, AmpCEC, pH 7.5, pH 7.5, 360 min pre-incubation, Table S2): 4.17 µM
- IC50 ([2]; pIC50, AmpCEC, pH 8.0, pH 8.0, 0 min pre-incubation, Table S2): 97.7 µM
- IC50 ([2]; pIC50, AmpCEC, pH 8.0, pH 8.0, 10 min pre-incubation, Table S2): 37.2 µM
- IC50 ([2]; pIC50, AmpCEC, pH 8.0, pH 8.0, 60 min pre-incubation, Table S2): 9.77 µM
- IC50 ([2]; pIC50, AmpCEC, pH 8.0, pH 8.0, 360 min pre-incubation, Table S2): 1.7 µM
- IC50 ([2]; pIC50 at pH 7.5, AmpCEC, 0 min pre-incubation, Table S1): 275 µM
- IC50 ([2]; pIC50 at pH 7.5, AmpCEC, 30 min pre-incubation, Table S1): 36.3 µM
- IC50 ([2]; pIC50 at pH 7.5, AmpCEC, 60 min pre-incubation, Table S1): 20 µM
- IC50 ([2]; pIC50 at pH 7.5, AmpCEC, 360 min pre-incubation, Table S1): 4.17 µM
- −18-Da modification, OXA-10 [3]: Small amounts
- IC50 ([4]; IC50, OXA-10, 10 min pre-incubation, r.t., pH 7.5, FC-5 (5 μM), 100 mM NaHCO3 added): 143 µM and 142 µM
- IC50 ([4]; pIC50 at pH 7.5, OXA-10, with 100 mM added NaHCO3, 0 min pre-incubation, Table S1): 218.8 ± 0.598 µM
- IC50 ([4]; pIC50 at pH 7.5, OXA-10, with 100 mM added NaHCO3, 30 min pre-incubation, Table S1): 263 µM
- IC50 ([4]; pIC50 at pH 7.5, OXA-10, with 100 mM added NaHCO3, 60 min pre-incubation, Table S1): 112 µM
- IC50 ([4]; pIC50 at pH 7.5, OXA-10, with 100 mM added NaHCO3, 360 min pre-incubation, Table S1): 204 µM
- IC50 ([4]; pIC50 at pH 7.5, OXA-10, without added NaHCO3, 0 min pre-incubation, Table S1): 204 µM
- IC50 ([4]; pIC50 at pH 7.5, OXA-10, without added NaHCO3, 10 min pre-incubation, Table S1): 87.1 µM
- IC50 ([4]; pIC50 at pH 7.5, OXA-10, without added NaHCO3, 30 min pre-incubation, Table S1): 89.1 µM
- IC50 ([4]; pIC50 at pH 7.5, OXA-10, without added NaHCO3, 60 min pre-incubation, Table S1): 75.9 µM
- IC50 ([4]; pIC50 at pH 7.5, OXA-10, without added NaHCO3, 360 min pre-incubation, Table S1): 50.1 µM
- Ki [5]: 1580 ± 189 µM
